Reference: patent US20130309218A1, “PROCESS FOR PRODUCING AQUEOUS SOLUTION CONTAINING FAT-SOLUBLE SUBSTANCE” (WACKER CHEMIE AG, priority 2011, published 2013)
One block for each molecule: values may come before it.

How the values were obtained:
Assay type in all cases: physicochemical
[1] = B-1: solubility of CoQ10 with NaTC (HPLC); settings: 50 mM MES buffer, 2 hours at 40° C.
Procedure: 1450 μL each of a 50 mM 2-morpholinoethanesulfonic acid (MES) buffer solution (containing 300 mM NaCl, 140 mM KSCN and 5 mM CaCl2) or the aforementioned buffer solution into which a super solubilizer (0.42% (w/v) NaTC, 0.83% (w/v) NaTC or 1.66% (w/v) NaTC) was dissolved were added to 57 mg of CAVAMAX® W8 CoQ10 (5 mg water content, 12.14 mg CoQ10 and 40 mg γCD) and sonication was performed for several seconds using an ultrasonic apparatus (Ikeda Scientific Co., Ltd.) and left to stand for 2 hours at 40° C.
As a comparison, 2 mL of 50 mM 2-morpholinoethanesulfonic acid (MES) buffer solution (containing 300 mM NaCl, 140 mM KSCN and 5 mM CaCl2) (in lieu of NaTC) was added to 12.14 mg of CoQ10 (in lieu of CAVAMAX® W8 CoQ10), and the mixture was prepared as described above. The resulting mixture was left to stand and filtered and the resulting solution was analyzed using HPLC.

[2] = B-2: solubility of CoQ10 with GZK2 (HPLC); settings: 12 mg CoQ10 (as complex or alone) in 3 mL purified water, sonicated 1 hour
Procedure: 0 mg, 6.2 mg, 12.5 mg, 25 mg or 50 mg of GZK2 was mixed into 60 mg of CAVAMAX® W8 CoQ10 (containing 12 mg of CoQ10) as a super solubilizer and 3 mL purified water was added. The resulting mixture was then sonicated for 1 hour using an ultrasonic apparatus (Ikeda Scientific Co., Ltd.).
As a comparison, GZK2 was incorporated into 12 mg of CoQ10 as a super solubilizer and the mixture was prepared as described above. The resulting mixture was left to stand and filtered and the resulting solution was analyzed using HPLC.

[3] = A-6: solubility of curcumin with methylcellulose (HPLC); settings: Super Solubilizer: None (comparison); 1.4 mg curcumin in 2 mL ion-exchanged water
Procedure: This mixture was then mixed by inversion.
(§1) The resulting mixture was left to stand and filtered and the resulting solution was analyzed using HPLC.

[4] = A-2: solubility of curcumin with GZ (HPLC); settings: 50 mM MES buffer, 2 hours at 40° C.
[5] = A-4: solubility of curcumin with quillaja saponin (HPLC); settings: total 2 mL 10% aqueous ethanol, 1 hour at 40° C.
Procedure: The mixture was then allowed to stand, was filtered and the resulting solution was analyzed using HPLC.

[6] = A-1 Preparation Method 1: solubility of curcumin with NaTC (HPLC); settings: 50 mM MES buffer, sonicated, 2 hours at 40° C., 0.2 μm filter
Procedure: The mixture was then filtered and the solution obtained was analyzed via HPLC as described above.

[7] = A-8: solubility of curcumin with Na glycocholate (HPLC); settings: Amount of Na Glycocholate Added 2.0% (w/v); 2 mL water; filtered immediately following mixing
[8] = Follow-up HPLC measurement of curcumin concentration in αCD aqueous solution comparable to Patent Document 2, Table 4
Procedure: Additionally, given that the maximum value of the concentration of the standard solution which was used as a reference was 100 μg/mL (Patent Document 2, Table 3), the concentration is outside the measurement range of the standard and is likely unreliable.

[9] = A-5: solubility of curcumin with polysorbate (HPLC); settings: Super Solubilizer: None (comparison); 1.4 mg curcumin in 2 mL ion-exchanged water
Procedure: This mixture was then sonicated for several seconds using an ultrasonic apparatus (Ikeda Scientific Co., Ltd.) and left to stand for 10 min at 40° C.
as §1

[10] = H-1: solubility of CAPE with NaTC (HPLC); settings: 1.4 mg CAPE (as complex or alone) in 5 mL water, sonicated 3 minutes
Procedure: As a comparison, water or a solution prepared by dissolving a super solubilizer (1.0% (w/v) NaTC) in water was combined with 1.4 mg of CAPE (in lieu of CAPE-γCD complex) and the mixture was prepared as described above. The resulting mixture was left to stand and filtered and the resulting solution was analyzed using HPLC.

CoQ10 Concentration ([1]; NaTC concentration 0% (w/v)): 0 µg/mL
CoQ10 Concentration ([1]; NaTC concentration 0.42% (w/v)): 0 µg/mL
CoQ10 Concentration ([1]; NaTC concentration 0.83% (w/v)): 0 µg/mL
CoQ10 Concentration ([1]; NaTC concentration 1.66% (w/v)): 1.52 µg/mL
CoQ10 Concentration ([2]; Amount of GZK2 Added 0 mg): 0.2 µg/mL
CoQ10 Concentration ([2]; Amount of GZK2 Added 6.2 mg): 3.6 µg/mL
CoQ10 Concentration ([2]; Amount of GZK2 Added 12.5 mg): 9.1 µg/mL
CoQ10 Concentration ([2]; Amount of GZK2 Added 25 mg): 3.9 µg/mL
CoQ10 Concentration ([2]; Amount of GZK2 Added 50 mg): 3.9 µg/mL
Compound: COC1=C(OC)C(=O)C(C/C=C(\C)CC/C=C(\C)CC/C=C(\C)CC/C=C(\C)CC/C=C(\C)CC/C=C(\C)CC/C=C(\C)CC/C=C(\C)CC/C=C(\C)CCC=C(C)C)=C(C)C1=O [CoQ10, coenzyme Q10]

Curcumin Concentration [3]: 0.01 µg/mL
Curcumin Concentration ([4]; GZ Concentration 0% (w/v)): 3.95 µg/mL
Curcumin Concentration ([4]; GZ Concentration 3.50% (w/v)): 98.19 µg/mL
Curcumin Concentration ([5]; Amount of QS Added 0 μL): 0.02 µg/mL
Curcumin Concentration ([5]; Amount of QS Added 200 μL): 16.81 µg/mL
Curcumin Concentration ([5]; Amount of QS Added 1000 μL): 122.96 µg/mL
Curcumin Concentration ([6]; NaTC concentration 0% (w/v)): 3.95 µg/mL
Curcumin Concentration ([6]; NaTC concentration 0.83% (w/v)): 35.35 µg/mL
Curcumin Concentration ([6]; NaTC concentration 1.66% (w/v)): 219.2 µg/mL
Curcumin Concentration [7]: 12.31 µg/mL
concentration of curcumin ([8]; content of αCD 1%): 1470 ng/mL
concentration of curcumin ([8]; content of αCD 2.5%): 3630 ng/mL
concentration of curcumin ([8]; content of αCD 5%): 8290 ng/mL
Curcumin Concentration [9]: 0.01 µg/mL
Compound: COc1cc(/C=C/C(=O)CC(=O)/C=C/c2ccc(O)c(OC)c2)ccc1O [Curcumin, curcumin]

CAPE Concentration ([10]; NaTC concentration 0% (w/v)): 16 µg/mL
CAPE Concentration ([10]; NaTC concentration 1.0% (w/v)): 155 µg/mL
Compound: O=C(/C=C/c1ccc(O)c(O)c1)OCCc1ccccc1 [CAPE, caffeic acid phenethyl ester]
